According to patent US10988444B2, “Antimicrobial compounds” (NEWSOUTH INNOVATIONS PTY LIMITED, priority 2016, dated 2021):
Where two headings read alike, the source gives them in different places.

What was measured:
S. aureus biofilms = assay: Confocal microscopy of established biofilms, Live/dead stain; type: cell-based; settings: 250 μM
S. aureus [1] = assay: Minimal inhibitory concentration (MIC) determination, Example 1; type: cell-based; settings: Staphylococcus aureus
Protocol: (§1) The antibacterial activity of the compounds was determined by the determination of minimal inhibitory concentration (MIC) by following the previously published protocol (see Nizalapur, S.; Ho, K. K.; Kimyon, Ö.; Yee, E.; Berry, T.; Manefield, M.; Cranfield, C. G.; Willcox, M.; Black, D. S.; Kumar, N. Org. Biomol. Chem. 2016, 14, 3623). The compounds to be tested were dissolved and diluted in autoclaved Millipore water. A single colony of bacteria was cultured overnight in TSB at 37° C. The resulting bacteria were collected by centrifugation and re-suspended in the same volume of MHB twice. Optical density (OD) of the resulting culture was adjusted to 0.1 at 600 nm (10^8 CFU/mL) in MHB, and the adjusted culture was further diluted to […] in MHB. Then, 100 μL of the bacterial solution was added to wells of a 96-well plate containing 100 μL of serially diluted compound. Two controls were also prepared: one containing 100 μL of MHB media and 100 μL sterile water, and the other containing 100 μL of bacterial solution and 100 μL sterile water. […] The MIC value was determined as the lowest concentration of compound that inhibited the complete growth of the bacteria (i.e. OD similar to that of the control having no bacteria). Each experiment was performed in triplicate and was repeated in three independent experiments.
(§2) The results of the MIC assay are given below in Table 1.

E. coli [2] = assay: as above; type: cell-based; settings: Escherichia coli, 24 h, MHB, 37° C., read-out: Minimum inhibitory concentration (MIC) E. coli
Protocol: as §1, §2

S. marcescens = assay: Biofilm disruption assay, established biofilms, crystal violet staining; type: cell-based, Serratia marcescens; settings: 250 μM, 24 h treatment
Protocol: (§3) Bacterial cultures were grown in TSB media for overnight at 37° C. with shaking at 150 r.p.m. Cultures were diluted (1:20) in YPD medium and 200 μl aliquots were dispensed to flat bottom 96-well plate wells (Sarstedt Australia). Cultures were supplemented with varying concentrations of synthetic compounds dissolved in water. For pre-established biofilm assay, cultures were grown in 96-well plate wells overnight prior to supplementation with synthetic compounds. Control cultures were supplemented with an equal amount of DMSO. Plates were sealed with self-adhesive microplate sealers (TopSeal-A, PerkinElmer) to allow air diffusion and to prevent condensation. Cultures were incubated overnight at 37° C. with shaking at 150 r.p.m. Biofilms adhered on polystyrene substratum were quantified by crystal violet staining as described previously (see Wiegand, I.; Hilpert, K.; Hancock, R. E. W. Nat. Protocols 2008, 3 (2), 163-175). All cultures were prepared in triplicates. Error bars represent the standard error of three independent experiments (n=3).
(§4) The biofilm disruption activities of the compounds were investigated using crystal violet staining according to a previously published protocol (G. A. O'Toole, J Vis Exp, 2011, (47), pii: 2437, DOI: 10.3791/2437, 2437). The ability of compounds (34-38, 51-56, 61, 62, 65 and 66) to disrupt the established biofilms of the Gram-positive bacteria S. aureus and the Gram-negative bacteria Pseudomonas aeruginosa, Serratia marcescens and E. coli, was determined at a concentration of 250 μM. In this assay, bacterial cultures were grown on a polystyrene substratum overnight prior to treatment with the compounds. In addition, the ability of these compounds to inhibit the formation of biofilms of P. aeruginosa and S. marcescens was also investigated at 250 μM, whereby the bacterial cultures were grown in the presence of test compounds.

S. aureus [3] = assay: as above; type: cell-based; settings: 250 μM, 24 h treatment
Protocol: as §3, §4

[4] = test system: Pseudomonas aeruginosa (PAO1); assay: as above; type: cell-based; settings: 250 μM, 24 h treatment
Protocol: as §3, §4

E. coli [5] = assay: as above; type: cell-based; settings: 250 μM, 24 h treatment
Protocol: as §3, §4

S. aureus (SA38) = settings: Literature value; cited from earlier work
S. marcescens biofilms = assay: Confocal microscopy of non-established biofilms, Live/dead stain; type: cell-based, Serratia marcescens; settings: 250 μM
Protocol: S. aureus and Serratia marcescens biofilms were grown by adding 1.5 ml of bacterial cells (OD600 nm˜0.600) suspended in fresh TSB medium into 35×10 mm polystyrene petri dishes and incubated over 24 h at 37° C. in a shaking incubator at 120 r.p.m. Cultures were supplemented with varying concentrations of synthetic compounds dissolved in water. Control cultures were supplemented with an equal amount of water. After 24 h, the biofilm growth medium was discarded and the biofilms were gently rinsed 3 times with PBS (pH: 7.0) in order to remove any planktonic bacterial cells. The remaining substratum adhered biofilms were then stained with Live/dead stain (Invitrogen, Oregon, USA) for 20 mins in the dark and then subjected to confocal microscopy. Stained biofilms were visualized with FV 1200 Confocal microscope.

[6] = test system: MRC-5 normal human lung fibroblasts; assay: Toxicity assay, Alamar blue, Example 1; type: cell-based; settings: 72 h incubation
Protocol: The normal human lung fibroblasts MRC-5 were cultured in minimal essential medium (MEM, Invitrogen) supplemented with 10% foetal calf serum (FCS), 1% L-glutamine-penicillin-streptomycin, 2% sodium bicarbonate, 1% non-essential amino acids (NEAA) and 1% sodium pyruvate. The cell line was maintained at 37° C. in 5% CO2 as an adherent monolayer and was passaged upon reaching confluence by standard cell culture techniques. MRC-5 cells were seeded at 2×10^4 cells per well in 96-well plates to ensure full confluence (quiescence). Cells were treated 24 h after seeding with 0.1 to 1000 μM of compounds. After 72 h drug incubation, the treated media was replaced with fresh media containing 10% Alamar blue and the cells were incubated for another 6 h. The metabolic activity was detected by spectrophotometric analysis by assessing the absorbance of Alamar blue as previously described by Pasquier et. al (see Pasquier, E.; Ciccolini, J.; Carre, M.; Giacometti, S.; Fanciullino, R.; Pouchy, C.; Montero, M.-P.; Serdjebi, C.; Kavallaris, M.; André, N. Oncotarget 2011, 2, 797).
Cell proliferation was determined and expressed as a percentage of untreated control cells. The determination of IC50 values was performed using GraphPad Prism 6 (San Diego, Calif., USA).
To further evaluate the utility of these novel guanylated peptidomimetics for medical applications, it was essential to determine their specificity towards bacterial cells over mammalian cells.

[7] = test system: Pseudomonas aeruginosa (PAO1); assay: Biofilm inhibition assay (inhibition of biofilm formation), crystal violet staining; type: cell-based; settings: 24 h, read-out: inhibition of biofilm formation by P. aeruginosa
Protocol: as §3, with “no-established” for “pre-established”, “along” for “prior to supplementation”, “water.” for “DMSO.”
as §4

[8] = MHB, 37° C., 24 h, read-out: Minimum inhibitory concentration (MIC) S. aureus

Compound	confocal microscopy, effect on pre-established S. aureus biofilm (S. aureus biofilms)	MIC (S. aureus [1]; [8]) [µg/mL]	MIC (E. coli [2]) [µg/mL]	disruption of established biofilms of S. marcescens (S. marcescens) [%]	disruption of established biofilms of S. aureus (S. aureus [3]) [%]	disruption of established biofilms of P. aeruginosa [4] [%]	disruption of established biofilms of E. coli (E. coli [5]) [%]	MIC (S. aureus (SA38)) [µM]	confocal microscopy, effect on S. marcescens biofilm formation (S. marcescens biofilms)	toxicity (IC50) against MRC-5 human fibroblast cells [6]	MIC (S. aureus [1]; MIC in μM as compared with MRC-5 IC50, read-out: equivalent MIC values) [µM]	inhibition at 250 µM [7] [%]
COC(=O)C(CCCN)NC(=O)C(CCCCN)NC(=O)C(=O)c1cc(Br)ccc1NC(=O)c1ccc2ccccc2c1.Cl.Cl (stereo not drawn) [Compound 62, Methyl 2-(2-(2-(2-(2-naphthamido)-5-bromophenyl)-2-oxoacetamido)-6-aminohexanamido)-5-aminopentanoate dihydrochloride]	disrupted the pre-established biofilm significantly	23	21	49	61	46	42	–	–	–	–	–
MSI-78	–	–	–	–	–	–	–	13	–	–	–	–
COC(=O)[C@H](CCCNC(=N)N)NC(=O)[C@H](CCCNC(=N)N)NC(=O)C(=O)c1ccccc1NC(=O)c1ccc2ccccc2c1.Cl.Cl [Compound 65, Methyl (2-(2-(2-naphthamido)phenyl)-2-oxoacetyl)arginylargininate dihydrochloride]	–	18	90	60	–	–	–	–	inhibited biofilm formation	not reaching a 50% reduction of cell viability at the highest tested dose	31	65
